# Assay results taken from patent US11999732B2, “P2X3 receptor antagonists” (RECORDATI INDUSTRIA CHIMICA E FARMACEUTICA SPA, priority 2018, dated 2024).
# Molecular target: T1, human P2X3 receptor (Homo sapiens, UniProt P56373)
# T1 construct: expressed in transfected cells; host or cells: CHO-K1
# T1 sequence (P56373 1-397): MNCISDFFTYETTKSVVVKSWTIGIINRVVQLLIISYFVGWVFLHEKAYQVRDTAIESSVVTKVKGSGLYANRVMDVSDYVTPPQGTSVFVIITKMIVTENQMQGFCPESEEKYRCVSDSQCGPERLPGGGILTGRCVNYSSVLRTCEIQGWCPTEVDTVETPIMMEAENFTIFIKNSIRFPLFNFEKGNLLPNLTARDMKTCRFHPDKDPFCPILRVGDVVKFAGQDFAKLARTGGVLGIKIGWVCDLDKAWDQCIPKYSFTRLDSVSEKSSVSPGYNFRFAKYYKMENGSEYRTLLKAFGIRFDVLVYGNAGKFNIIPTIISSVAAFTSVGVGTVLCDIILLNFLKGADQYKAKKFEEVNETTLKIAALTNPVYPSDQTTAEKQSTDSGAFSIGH
# Assay: Calcium luminescence (photoprotein) assay in CHO-K1 cells co-expressing human P2X3 receptor, α,β-Met-ATP stimulation, FLEXSTATION readout
# Format: cell-based
# Conditions: Table 8; human P2X3 receptor antagonist activity, CHO-K1 cells, α,β-Met-ATP; read-out: h-P2X3 IC50
# Summary of the method: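 CHO-K1 cells co-expressing human P2X3 and a Ca2+-sensitive photoprotein, loaded with coelenterazine in Tyrode's buffer (pH 7.4) for 4 h at 37 °C. Compounds injected 4 min before α,β-Met-ATP stimulation; luminescence recorded, IC50 and pseudo-Hill slope from nonlinear regression of inhibition curves.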
row,SMILES,IC50 [µM]
1,"COc1ccc(Cc2nn3c(C(C)(C)C)nnc3c3ncc(N4CCOCC4)cc23)cc1 [Example 123, 3-tert-butyl-6-(4-methoxybenzyl)-8-(morpholin-4-yl)pyrido[2,3-d][1,2,4]triazolo[4,3-b]pyridazine]",0.246
2,"COCC1CN(c2cnc3c(c2)c(Cc2ccc(OC)cc2)nn2c(CC(C)C)nnc32)C1 [Example 124, 6-(4-methoxybenzyl)-8-[3-(methoxymethyl)azetidin-1-yl]-3-(2-methylpropyl)pyrido[2,3-d][1,2,4]triazolo[4,3-b]pyridazine]",2.82
3,"COc1ccc(Cc2nn3c(CC4CCOCC4)nnc3c3ncc(N4CCOCC4)cc23)cc1 [Example 125, 6-(4-methoxybenzyl)-8-(morpholin-4-yl)-3-(tetrahydro-2H-pyran-4-ylmethyl)pyrido[2,3-d][1,2,4]triazolo[4,3-b]pyridazine]",0.538
4,"Clc1ccc(Cc2nn3c(CC4CCOCC4)nnc3c3ncc(N4CCOCC4)cc23)cc1 [Example 126, 6-(4-chlorobenzyl)-8-(morpholin-4-yl)-3-(tetrahydro-2H-pyran-4-ylmethyl)pyrido[2,3-d][1,2,4]triazolo[4,3-b]pyridazine]",0.0206
5,"CC(C)c1nnc2c3ncc(N4CCOCC4)cc3c(Cc3ccc(Cl)cc3)nn12 [Example 127, 6-(4-chlorobenzyl)-8-(morpholin-4-yl)-3-(propan-2-yl)pyrido[2,3-d][1,2,4]triazolo[4,3-b]pyridazine]",0.147
6,"COCC1CN(c2cnc3c(c2)c(Cc2ccc(Cl)cc2)nn2c(CC(C)C)nnc32)C1 [Example 128, 6-(4-chlorobenzyl)-8-[3-(methoxymethyl)azetidin-1-yl]-3-(2-methylpropyl)pyrido[2,3-d][1,2,4]triazolo[4,3-b]pyridazine]",0.576
7,"CC(c1nnc2c3ncc(N4CCOCC4)cc3c(Cc3ccc(Cl)cc3)nn12)C1CCOCC1 (stereo not shown) [Example 132, 6-(4-chlorobenzyl)-8-(morpholin-4-yl)-3-[1-(tetrahydro-2H-pyran-4-yl)ethyl]pyrido[2,3-d][1,2,4]triazolo[4,3-b]pyridazine]",0.0191
8,"CC(C)Cc1nnc2c3ncc(N4CCOCC4)cc3c(Cc3ccc(Cl)cc3)nn12 [Example 133, 6-(4-chlorobenzyl)-3-(2-methylpropyl)-8-(morpholin-4-yl)pyrido[2,3-d][1,2,4]triazolo[4,3-b]pyridazine]",0.217
9,"Cc1ccc(Cc2nn3c(CC4CCCCC4)nnc3c3ncccc23)cc1 [Example 136, 3-(cyclohexylmethyl)-6-(4-methylbenzyl)pyrido[2,3-d][1,2,4]triazolo[4,3-b]pyridazine]",1.79
10,"Cc1ccc(Cc2nn3c(CC4CCCCC4)nnc3c3ncc(N4CCOCC4)cc23)cc1 [Example 137, 3-(cyclohexylmethyl)-6-(4-methylbenzyl)-8-(morpholin-4-yl)pyrido[2,3-d][1,2,4]triazolo[4,3-b]pyridazine]",0.234
11,"CC(C)(C)OC(=O)NC1CCN(c2cnc3c(c2)c(Cc2ccc(Cl)cc2)nn2c(C(C)(C)C)nnc32)CC1 [Example 138, tert-butyl n-[1-[5-tert-butyl-8-(4-chlorobenzyl)-3,4,6,7,13-pentazatricyclo[7.4.0.02,6]trideca-1(9),2,4,7,10,12-hexaen-11-yl]-4-piperidyl]carbamate]",3.34
12,"CC(C)(C)c1nnc2c3ncc(N4CCC(N)CC4)cc3c(Cc3ccc(Cl)cc3)nn12 [Example 139, 1-[5-tert-butyl-8-(4-chlorobenzyl)-3,4,6,7,13-pentazatricyclo[7.4.0.02,6]trideca-1(9),2,4,7,10,12-hexaen-11-yl]piperidin-4-amine]",0.379
13,"CC(C)(C)c1nnc2c3ncc(N4CCC(O)CC4)cc3c(Cc3ccc(Cl)cc3)nn12 [Example 140, 1-[5-tert-butyl-8-(4-chlorobenzyl)-3,4,6,7,13-pentazatricyclo[7.4.0.02,6]trideca-1(9),2,4,7,10,12-hexaen-11-yl]piperidin-4-ol]",0.309
